Measured values taken from publication PMC6811774, “Potent, selective, and subunit‐dependent activation of TRPC5 channels by a xanthine derivative” (British Journal of Pharmacology, 2019).
Values joined by “and” are separate entries in the source; they are usually repeats but may differ in a detail not shown here. Identical values can stand only once.

Key:
[1] = target: T1, TRPC5-SYFP2 (TRPC5:C5 channels) (Homo sapiens, UniProt Q9UL62); test: [Ca2+]i measurement (Fura-2, FlexStation) in (Tet+) HEK T-REx cells expressing hTRPC5-SYFP2; type: cell-based
T1 construct: expressed in transfected cells
T1 sequence (Q9UL62 1-973): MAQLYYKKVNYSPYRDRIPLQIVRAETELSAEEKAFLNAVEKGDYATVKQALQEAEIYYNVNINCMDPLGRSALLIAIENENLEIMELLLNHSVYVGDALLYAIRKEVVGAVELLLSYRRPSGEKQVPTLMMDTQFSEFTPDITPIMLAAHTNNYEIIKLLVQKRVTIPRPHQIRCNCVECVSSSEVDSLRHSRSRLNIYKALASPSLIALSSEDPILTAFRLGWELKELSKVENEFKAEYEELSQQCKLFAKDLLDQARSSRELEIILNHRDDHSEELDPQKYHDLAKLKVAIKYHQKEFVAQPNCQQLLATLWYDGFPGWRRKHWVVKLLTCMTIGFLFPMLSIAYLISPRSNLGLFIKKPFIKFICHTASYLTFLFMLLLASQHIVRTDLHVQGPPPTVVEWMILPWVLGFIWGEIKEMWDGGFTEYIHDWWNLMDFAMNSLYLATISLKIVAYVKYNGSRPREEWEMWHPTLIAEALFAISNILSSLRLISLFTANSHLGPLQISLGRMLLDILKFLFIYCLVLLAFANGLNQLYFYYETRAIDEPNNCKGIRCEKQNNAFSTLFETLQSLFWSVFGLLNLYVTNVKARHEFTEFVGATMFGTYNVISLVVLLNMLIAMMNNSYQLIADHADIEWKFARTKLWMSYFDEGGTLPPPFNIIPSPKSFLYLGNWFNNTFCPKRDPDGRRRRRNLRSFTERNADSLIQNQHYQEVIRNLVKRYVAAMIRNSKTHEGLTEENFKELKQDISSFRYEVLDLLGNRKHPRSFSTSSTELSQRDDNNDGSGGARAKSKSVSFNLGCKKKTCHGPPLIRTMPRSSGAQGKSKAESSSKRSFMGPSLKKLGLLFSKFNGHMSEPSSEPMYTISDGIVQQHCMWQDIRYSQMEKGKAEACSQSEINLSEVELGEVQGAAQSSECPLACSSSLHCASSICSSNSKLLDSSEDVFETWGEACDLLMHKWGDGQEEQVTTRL
Source text: To facilitate cloning of TRPC5‐SYFP2 and TRPC4‐SYFP2, a pcDNA™4/TO expression vector (ThermoFisher Scientific, Waltham, MA, USA), into which a four amino acid linker (ASAS) flanked by AgeI and SacII restriction sites had been introduced between EcoRI and XhoI restriction sites, was used (Naylor et al., 2016). Human TRPC4β was inserted between BamHI and AgeI restriction sites as described previously (Ludlow et al., 2017). Human TRPC5 (forward primer: 5′ GCTTGGTACCGCCACCATG 3′ and reverse primer: 5′ […] 3′) was inserted upstream of the linker between KpnI and AgeI restriction sites using hTRPC5/pcDNA™4/TO (Zeng et al., 2004) as a PCR template. Both constructs contained an N‐terminal Kozak sequence. SYFP2 was inserted downstream of the linker between SacII and XbaI restriction sites using pSYFP2‐C1 as a PCR template (forward primer, 5′ […] 3′; reverse primer, 5′ […] 3′). pSYFP2‐C1 was a gift from Dorus Gadella (Addgene plasmid #22878; http://n2t.net/addgene:22878; RRID:Addgene_22878; Kremers, Goedhart, van Munster, & Gadella, 2006). Plasmids were sequenced to verify identity.
HEK T‐REx™ cell line was transfected with TRPC5‐SYFP2 or TRPC4‐SYFP2 using FuGENE® HD transfection reagent. After 48 hr, cells were put under antibiotic selection using 400 μg·ml^−1 zeocin and 10 μg·ml^−1 blasticidin S (Invivogen, San Diego, California, USA). Medium changes were carried out regularly to remove dead cells. HEK T‐REx cells expressing tetracycline‐inducible human TRPC5, TRPC4–C1, and TRPC5–C1 were created as described previously (Akbulut et al., 2015; Ludlow et al., 2017; Rubaiy, Ludlow, Henrot, et al., 2017). TRPC5–C1 and TRPC4–C1 concatemers allow expression of functional channels with defined 2:2 stoichiometry that display ion permeability and current–voltage relationships distinct from those of homomeric TRPC4:C4 or TRPC5:C5 channels and consistent with those obtained upon co‐expression of TRPC1 with TRPC4 or TRPC5 (Ludlow et al., 2017; Rubaiy, Ludlow, Bon, & Beech, 2017; Rubaiy, Ludlow, Henrot, et al., 2017). Cells were cultured in DMEM‐F12 GlutaMAX (Invitrogen, Paisley, UK) containing 10% FBS (Sigma‐Aldrich, Gillingham, UK), with the addition of blasticidin (10 μg·ml^−1) and zeocin (400 μg·ml^−1) to maintain the stable incorporation of the tetracycline repressor and the channel of interest, respectively. Expression of proteins was induced by the addition of tetracycline (1 μg·ml^−1, 24 hr). Cells were maintained in a humidified incubator with 5% CO2 at 37°C. HEK 293 cells stably expressing tetracycline‐regulated human http://www.guidetopharmacology.org/GRAC/ObjectDisplayForward?objectId=494 were prepared similarly and have also been described previously (McHugh, Flemming, Xu, Perraud, & Beech, 2003). For experiments using transient co‐expression of TRPC1 and TRPC5, HEK cells at 40–60% confluency were transfected with pIRES2‐AcGFP1 and pIRES2‐DsRed‐Express2 plasmids containing human TRPC1 and TRPC5, respectively, using Lipofectamine 3000 (ThermoFisher Scientific, Yokohama, Japan). All experiments using transient expression were performed within 48 hr after transfection. A498 cells were cultured in Minimum Essential Medium containing Earle's salts (ThermoFisher Scientific, Loughborough, UK), supplemented with 10% FBS and penicillin–streptomycin (100 units per ml^−1, 100 μg·ml^−1; ThermoFisher Scientific, Loughborough, UK). CHO cells stably expressing http://www.guidetopharmacology.org/GRAC/ObjectDisplayForward?objectId=510 were maintained in Ham's Nutrient Mixture F12 (ThermoFisher Scientific, Loughborough, UK) supplemented with 10% FBS, penicillin–streptomycin, and 1 mg·ml^−1 G418 (InvivoGen, San Diego, California, USA). For experiments using hTRPC3 and hTRPC6, WT HEK 293 cells were transfected with hTRPC3 (Naylor et al., 2016) or hTRPC6 (cloned into pcDNA3) using jetPRIME® transfection reagent (VWR, Lutterworth, UK). Cells were assayed 48 hr after transfection. […]

TRPC5:C5 = test system: TRPC5:C5; set-up: method as in Rubaiy, Ludlow, Henrot, et al., 2017; settings: EA-mediated activation, 10 nM EA; ref Rubaiy, Ludlow, Henrot, et al., 2017; read-out: IC50, inhibition of TRPC5:C5; cited from earlier work

Cn1c(=O)n(CCCO)c(=O)c2c1nc(Oc1cccc(OC(F)(F)F)c1)n2Cc1ccc(Cl)cc1 [Pico145, reference compound]
IC50 [1]: 2 nM | Concentration giving maximal inhibition of AM237 response ([1]; 100 nM AM237): 10 nM | Hill slope, inhibition of AM237 response ([1]; 100 nM AM237): –1.3 | Mode of inhibition of AM237-mediated TRPC5:C5 activation ([1]; surmountable, parallel rightward shifts, confirmed by patch-clamp): competitive antagonist | IC50 (TRPC5:C5): 1 nM and ~1 nM
